Reference: article PMC3866371 (Neuropharmacology, 2013)
Read-outs that look alike come from different tables or passages of the source.

Experiments:
human α3β4α5 nAChR [1] = biological target: T1, human α3β4α5 nAChR (Homo sapiens, UniProt P30926+P32297); type: binding
rat α3β4 nAChR [2] = biological target: T2, rat α3β4 nAChR (Rattus norvegicus, UniProt P04757+P12392); experiment: Competition binding with [^125I]AT-1012 as radioligand, HEK cell membranes
rat α4β2 nAChR = rat α4β2 nAChR (Rattus norvegicus, UniProt P09483+P12390); experiment: Competition binding with [^3H]epibatidine as radioligand, HEK cell membranes
rat α3β4 nAChR [3] = biological target: T2, rat α3β4 nAChR; experiment: as above
human α3β4α5 nAChR [4] = biological target: T1, human α3β4α5 nAChR; experiment: Competition binding with [^125I]AT-1012 as radioligand, HEK cell membranes
α7 nAChR = α7 nAChR (Homo sapiens, UniProt P36544); experiment: Binding at α7 nAChR
[5] = radioligand [^125I]AT-1012, rat α3β4 nAChR, average ± SD
[6] = read-out: Binding affinity (Ki)
[7] = radioligand [^125I]AT-1012, human α3β4α5 nAChR, average ± SD

Compound | Hill coefficient (human α3β4α5 nAChR [1]) | Hill coefficient (rat α3β4 nAChR [2]; [5]) | Hill coefficient (rat α4β2 nAChR) | Ki (rat α4β2 nAChR; [6]) [µM] | Hill coefficient (rat α3β4 nAChR [3]) | Hill coefficient (human α3β4α5 nAChR [4]; [7]) | Inhibition of [^125I]AT-1012 binding (rat α3β4 nAChR [2]; rat α3β4 nAChR) | Ki (rat α4β2 nAChR) [µM] | Competition with [^125I]AT-1012 at the human α3β4α5 nAChR (human α3β4α5 nAChR [4]) | other results
CN1C2CCCC1CC(Nc1ccccc1Br)C2 (stereo not drawn) [AT-1001] | 0.82±0.04 | 0.94±0.04 | 0.97±0.11 | 0.263 ± 0.0093 | 0.87±0.19 | 0.95±0.05 |  |  |  | 
CN1[C@@H]2CCC[C@H]1CC(Nc1ccccc1I)C2 (stereo partly drawn) [AT-1012] |  | 1.03±0.01 | 0.88±0.02 | 0.142 ± 0.002 | 0.77±0.09 | 0.96±0.09 |  |  |  | Ki (human α3β4α5 nAChR [1]; read-out: Binding affinity (Ki) at human α3β4α5 nAChR): 0.00108 ± 5e-05 µM; Binding selectivity for the α3β4 over α4β2 nAChR (rat α4β2 nAChR): over 100 fold; Ki (rat α3β4 nAChR [3]; [6]): 0.0013 ± 0.00016 µM; Ki (human α3β4α5 nAChR [4]; read-out: Binding affinity (Ki) at human α3β4α5 nAChR, radioligand [^125I]AT-1012, average ± SD): 0.00068 ± 6e-05 µM; Selectivity versus the α7 nAChR (α7 nAChR): greater than 100 fold
COCC[C@H]1CC2CN3CCc4c([nH]c5ccccc45)[C@](C(=O)OC)(C2)[C@H]13 [Compound 18-MC, 18-methoxycoronaridine] |  |  |  |  |  |  | do not inhibit | > 10 | do not compete | Ki (rat α3β4 nAChR [2]): > 10 µM; Ki (rat α3β4 nAChR [3]): > 10 µM
Clc1ccc(C2CC3CCC2N3)cn1 (stereo not drawn) [Epibatidine] | 0.98±0.02 | 0.89±0.01 |  |  | 1.00±0.06 | 0.88±0.02 |  |  |  | 
CNC1(C)C2CCC(C2)C1(C)C (stereo not drawn) [Mecamylamine] |  |  |  |  |  |  | do not inhibit | > 10 | do not compete | 
CN1CCC[C@H]1c1cccnc1 [Nicotine] |  |  |  |  |  |  |  |  |  | Hill coefficient (human α3β4α5 nAChR [1]; radioligand [^3H]epibatidine, human α3β4α5 nAChR, average ± SD): 0.91±0.04; Hill coefficient (rat α3β4 nAChR [2]): 467±48 (0.68±0.02); Hill coefficient (rat α4β2 nAChR; radioligand [^3H]epibatidine, rat α4β2 nAChR, average ± SD): 0.95±0.07; Hill coefficient (rat α3β4 nAChR [3]; radioligand [^3H]epibatidine, rat α3β4 nAChR, average ± SD): 1.08±0.12; Hill coefficient (human α3β4α5 nAChR [4]): 1305±219 (0.75±0.05)
